# Test results: US20130303439A1, “CHIMERIC PEPTIDES INCLUDING A PENETRATING PEPTIDE AND A BINDING DOMAIN OF PP2A CATALYTIC SUBUNIT TO CASPASE-9” (Institut National de la Sante et de la Recherche Medicale …, priority 2010, published 2013)
# Key:
# [1] = test system: TS1αβ cells; test: Cell death assay (annexin V / PI flow cytometry); assay type: cell-based, murine; conditions: peptides at 150 μM
# Experimental: (§1) An Annexin-V-FITC conjugated kit (Roche) was used for the assessment of outer leaflet exposure of phosphatidylserine (PS) in the plasma membrane of apoptotic cells. Staining was performed according to the manufacturer's instructions. A total of […] cells were analyzed by flow cytometry in a FACSCalibur cytofluometer (BD Biosciences). Necrotic cells were excluded by propidium iodide (PI) staining, and single annexin V positive cells were considered apoptotic. For apoptotic analysis the different peptides were used at 150 μM.
# Using flow cytometry detection of annexin V and PI, the inventors analyzed the capacity of DPT-C9 to induce apoptosis in TS1αβ cells cultured in presence of IL-2. In contrast to non penetrating C9 peptide, DPT-C9 induced a 6-fold increase of apoptosis.
# [2] = test system: Daudi; test: Cell death assay (annexin V / PI flow cytometry); assay type: cell-based, human; conditions: peptides at 150 μM
# Experimental: as §1
# [3] = test system: HeLa; test: Cell death assay (annexin V / PI flow cytometry); assay type: cell-based, human; conditions: peptides at 150 μM
# Experimental: as §1
# [4] = test system: Jurkat; test: Cell death assay (annexin V / PI flow cytometry); assay type: cell-based, human; conditions: peptides at 150 μM
# Experimental: as §1
# [5] = test system: CTLL; test: Cell death assay (annexin V / PI flow cytometry); assay type: cell-based; conditions: murine CTLL; peptides at 150 μM
# Experimental: as §1
# [6] = test system: Daudi cells; test: Apoptosis assay (Annexin V-FITC), Example 2; assay type: cell-based, human; conditions: FIG. 1: 100 microM, 12 and 24 h, method says 150 mM, compared to control non-treated
# Experimental: FIG. 1. Daudi cell line was cultured in RPMI 1640 medium in the presence of DPT-PP2Ah peptide (100 microM). At 12 and 24 h, we analyze the apoptotic effect of the peptide by annexine stainin.
# (§2) Annexin V-FITC kit was used for detection of apoptosis and staining was performed according to the manufacturer's instructions. A total of 1×10^5 cells were analyzed by flow cytometry in a FACSCalibur cytometer (BD Biosicences). Necrotic cells were excluded by PI staining and annexin V positive cells were considered apoptotic. The effect of DPT-PP2Ah was compared to untreated control cells or to DPT-C9h-treated cells. Penetrating peptides were used at […]. The shuttle alone (DPT-sh1) was also used as a control.
# [7] = test system: primary cells isolated from xenograft model of breast cancer (BC52); test: Apoptosis by annexin staining in primary cells from xenograft model; assay type: cell-based; conditions: 100 microM, 16 h, compared to control non-treated cells
# Experimental: (§3) FIG. 2 Cell isolated form xenograft models of lung cancer (LCF25), breast cancer (BC52) and uveal melanoma (KMP41) were cultured in DMEM medium in the absence (control) or in the presence of 100 microM of DPT-PP2Ah peptide. After 16 h of culture, apoptosis was estimated by annexin staining.
# as §2
# [8] = test system: primary cells isolated from xenograft model of lung cancer (LCF25); test: as above; assay type: cell-based; conditions: 100 microM, 16 h, compared to control non-treated cells
# Experimental: as §3, §2
# [9] = test system: primary cells isolated from xenograft model of uveal melanoma (KMP41); test: as above; assay type: cell-based; conditions: 100 microM, 16 h, compared to control non-treated cells
# Experimental: as §3, §2
# [10] = test system: triple negative breast cancer model BC11; test: In vivo tumor growth inhibition of primary human breast cancer xenografts; set-up: species or system mice; conditions: once daily for 5 weeks
# Text: The primary human xenografts were obtained as previously described (Marangoni et al., (2007) Clin Cancer Res 13:3989-3998, de Plater et al., (2010) Br J Cancer 103:1192-1200. Spontaneously growing mammary tumors […] were xenografted into nude immunodeficient mice to allow pharmacological assessments, and maintained from nude mouse to nude mouse serially passages.
# For therapeutic experimental assays, 5- to 8-week old Swiss nu/nu female mice received a subcutaneous graft of tumor fragments with a volume of approximately 15 mm^3. Tumors developed at the graft site 2 to 6 weeks later. Mice bearing growing tumors with a volume of 40 to 200 mm^3 were individually identified and randomly assigned to the control or treatment groups (9-10 animals in each group) and treatments were started on day 1. Mice were weighed twice a week. Tumour-bearing mice were sacrificed when the tumor volume reached 2500 mm^3, defined as the ethical limit. Tumor volumes and antitumor activity were evaluated as previously reported (Marangoni et al., (2007) Clin Cancer Res 13:3989-3998).
# DPT-PP2Ah peptide diluted in water/glucose (1 to 25 mg/kg) was given by intraperitoneally route 7 days per week.
# To evaluate the potential antitumor effect of DPT-PP2Ah, we treated mice bearing the triple negative breast cancer model BC11. […]
Substance,induction of apoptosis / cell death (in words) [1],increase of apoptosis [2],increase of apoptosis [3],increase of apoptosis [4],cell death (in words) [5],apoptosis (annexin staining) [6],apoptosis (annexin staining) [7],apoptosis (annexin staining) [8],apoptosis (annexin staining) [9],"tumor growth inhibition (TGI) ([10]; 1 mg/kg intraperitoneally, relative to 5 mg/kg)","tumor growth inhibition (TGI) ([10]; 5 mg/kg intraperitoneally, end of treatment)"
VKKKKIKREIKI-YVETLDGIFEQWAHSEDL (VKKKKIKREIKIYVETLDGIFEQWAHSEDL; Synthetic human DPT-C9) [DPT-C9h],unable to cause cell death,5 fold,5 fold,5 fold,unable to cause cell death,lower apoptosis,–,–,–,–,–
VKKKKIKREIKIDTLDHIRALDRLQEVPHEGP (Synthetic DPT-PP2Ah),–,–,–,–,–,strongly induces apoptosis,induces apoptosis,induces apoptosis,induces apoptosis,lower,significant tumor growth inhibition
